Several values for one entry are separate records, joined by “and”; a condition that tells them apart may be missing. Equal entries are not always repeated.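 Following 48 hours of exposure in 96-well plates, responses at five concentrations were used to interpolate endpoints linearly. Abbreviation: GI50, concentration required for 50% inhibition of growth. TGI: total growth inhibition.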
Experiments:
Assay in all cases: inhibition of tumour cell growth, NCI panel, 48 h
BT-549 breast = tested on: BT-549 breast
DU-145 prostate = tested on: DU-145 prostate
HCT-116 colon = tested on: HCT-116 colon
IGROV1 ovarian = tested on: IGROV1 ovarian
LOX IMVI melanoma = tested on: LOX IMVI melanoma
MALME-3M melanoma = tested on: MALME-3M melanoma
MDA-N = tested on: MDA-N
MOLT-4 leukemia = tested on: MOLT-4 leukemia
NCI-H226 lung = tested on: NCI-H226 lung
NCI/ADR-RES ovarian = tested on: NCI/ADR-RES ovarian
OVCAR-5 ovarian = tested on: OVCAR-5 ovarian
SN12C renal = tested on: SN12C renal
UACC-257 melanoma = tested on: UACC-257 melanoma

SMILES	TGI (BT-549 breast)	TGI (DU-145 prostate)	TGI (HCT-116 colon)	TGI (IGROV1 ovarian)	TGI (LOX IMVI melanoma)	TGI (MALME-3M melanoma)	TGI (MDA-N)	TGI (MOLT-4 leukemia)	TGI (NCI-H226 lung) [µM]	TGI (NCI/ADR-RES ovarian)	TGI (OVCAR-5 ovarian)	TGI (SN12C renal)	TGI (UACC-257 melanoma)	GI50 (MALME-3M melanoma)	GI50 (MOLT-4 leukemia)	GI50 (NCI-H226 lung) [µM]	GI50 (OVCAR-5 ovarian)	GI50 (UACC-257 melanoma) [µM]
COC(=O)C1(C)CCCC2(C)C3CCC4CC3(C=C4CO)CCC12 (stereo not drawn)	> 100 µM	> 100 µM	> 100 µM	> 100 µM	47.4 µM	> 100 µM	> 100 µM	76.4 µM	> 100	75.5 µM	> 100 µM	60.7 µM	> 100 µM	–	–	–	–	–
Cc1cc(-c2nc3cc(O)ccc3s2)ccc1N	> 100 µM	> 100 µM	42.7 µM	> 100 µM	> 100 µM	> 100 µM	> 100 µM	> 100 µM	> 100	> 100 µM	75.5 µM	74.2 µM	> 100 µM	–	–	–	–	–
NS(=O)(=O)c1nnc(/N=C(/CCC(=O)O)C(=O)O)s1	> 100 µM	> 100 µM	> 100 µM	> 100 µM	> 100 µM	> 100 µM	> 100 µM	> 100 µM	> 100	> 100 µM	> 100 µM	> 100 µM	> 100 µM	–	–	–	–	–
Cc1c(F)c(N)c2c(=O)cc(-c3ccc(NC(=O)[C@@H](N)CCCCN)c(F)c3)oc2c1F	50.3 µM and 49.6 µM	41.3 µM and 27.4 µM	21.5 µM and 22.1 µM	19.5 µM and 18.1 µM	41.3 µM and 27.7 µM	44.2 µM and 33.6 µM	28.7 µM and 24.6 µM	15.1 µM and 5.79 µM	15	51.9 µM and 78.7 µM	25.2 µM and 21.9 µM	31.7 µM and 32.7 µM	24.7 µM and 27.8 µM	23.6 µM and 10 µM	3.3 µM and 1.38 µM	0.0446	0.947 µM and 0.249 µM	0.302
O=C1NC(=NC2CCCCC2)C2(CCN(CCCC3(c4ccc(F)cc4)OCCO3)CC2)N1c1ccccc1	18.5 µM	33.8 µM	24.7 µM	–	39 µM	30.5 µM	28.7 µM	36.7 µM	44.3	66.8 µM	30.7 µM	37.5 µM	28.7 µM	–	–	–	–	–
Clc1ccccc1-c1nnc2c(-c3ccccc3)nc3ccccc3n12	> 100 µM	> 100 µM	> 100 µM	> 100 µM	> 100 µM	> 100 µM	> 100 µM	> 100 µM	> 100	> 100 µM	> 100 µM	> 100 µM	> 100 µM	–	–	–	–	–
OC(C/C(=N\N=C(/CC(O)(C(F)(F)F)C(F)(F)F)c1ccccc1)c1ccccc1)(C(F)(F)F)C(F)(F)F	> 10 µM	> 10 µM	> 10 µM	> 10 µM	> 10 µM	> 10 µM	> 10 µM	> 10 µM	> 10	> 10 µM	> 10 µM	> 10 µM	> 10 µM	–	–	–	–	–
O=C1C(=C(C(=O)c2ccccc2)C(=O)c2ccccc2)OC(c2ccccc2)=C1C(=O)c1ccccc1	19.9 µM	48.8 µM	14.1 µM	8.84 µM	18.5 µM	39.4 µM	77.9 µM	9.86 µM	16.4	24.5 µM	50.4 µM	19.2 µM	55.1 µM	–	–	–	–	–
COc1ccc(NS(=O)c2ccc(OC)cc2)cc1 (stereo not drawn)	> 100 µM	> 100 µM	> 100 µM	99.4 µM	> 100 µM	90.9 µM	> 100 µM	> 100 µM	> 100	> 100 µM	> 100 µM	> 100 µM	> 100 µM	–	–	–	–	–
CC(C)(C)N(Cc1ccoc1)C(=O)/C=C\S(=O)c1ccccc1 (stereo not drawn)	30.3 µM	25.7 µM	34.1 µM	32.9 µM	21.8 µM	–	44.2 µM	> 100 µM	48.6	56.2 µM	59.2 µM	58.5 µM	46.1 µM	–	–	–	–	–
Nc1cccc(C#Cc2cccc(C#Cc3cccc(N)n3)n2)n1	> 100 µM	> 100 µM	> 100 µM	> 100 µM	> 100 µM	–	> 100 µM	> 100 µM	> 100	> 100 µM	> 100 µM	> 100 µM	> 100 µM	–	–	–	–	–
COc1cc(C2(O)c3ccccc3C3=NCCN32)cc(OC)c1OC (stereo not drawn)	> 100 µM	> 100 µM	> 100 µM	–	> 100 µM	–	> 100 µM	> 100 µM	> 100	> 100 µM	–	> 100 µM	> 100 µM	–	–	–	–	–
CN(C)c1ccc(N=Nc2cccc3ncccc23)cc1	> 100 µM	> 100 µM	> 100 µM	> 100 µM	> 100 µM	> 100 µM	> 100 µM	> 100 µM	> 100	> 100 µM	–	> 100 µM	> 100 µM	–	–	–	–	–
COC(=O)/C(=C\c1cn(C(C)=O)c2ccccc12)P(=O)(OC)OC	29.6 µM	26.2 µM	28 µM	44.9 µM	20.3 µM	52 µM	32.4 µM	> 100 µM	> 100	> 100 µM	–	28 µM	–	–	–	–	–	–
